EP0337167B1, “4-Aryl-4-piperidine (or pyrrolidine or hexahydroazepine) carbinols and heterocyclic analogs thereof” (THE DU PONT MERCK PHARMACEUTICAL COMPANY, priority 1988, dated 1989)
Read-outs that look alike come from different tables or passages of the source.

Legend:
[1] = literature statement (A. L. Morrison et al., J.Chem. Soc., 1467, 1950); cited from earlier work
[2] = tested on: Male CF mice; experiment: Antagonism of tetrabenazine-induced depression (exploratory loss and ptosis) in mice; type: in vivo; settings: Mus musculus, po, 1 h, orally, one hour post-drug, tetrabenazine methane sulfonate 52 mg/kg i.p.
Text: The prevention of tetrabenazine-induced sedation and depression in mice is a standard procedure used to detect and compare antidepressant compounds. The activity of antidepressant compounds in this procedure correlates well with human efficacy. (Barnett, et al., Int. J. Neuropharmac. 8: 73-79, 1969, and Vernier, et al., "The Pharmacodynamics of Amitriptyline" in Psychsomatic Medicine (Nodine & Moyer, editors) pp. 683-690, 1962).
Male CF mice (Charles River Breeding Laboratories, Wilmingon, MA), fasted for 16-22 hours and weighing 18-25 g, were injected with randomized and coded does of test compounds, then challenged with 52 mg/kg i.p. tetrabenazine methane sulfonate 30 minutes prior to the specified observation time. The tetrabenazine methane sulfonate solution (5.2 mg/ml in distilled water) was prepared daily and stored in foil-wrapped amber bottles to limit degradation. […] Exploratory loss was defined as failing to move to the perimeter of a 12.7 cm (5 inch) (12.7 cm) circle within 15 seconds of being placed at the center of the circle. Ptosis was defined as both eyelids closed 50% or more compared to normal. Antidepressant activity was calculated as the percentage of mice failing to respond to the tetrabenazine challenge dose. […] Median effective does (ED₅₀'s) were estimated using the Moving Average method of Thompson (Bacteriological Rev. 11: 115-145, 1947).
The data in Table 5 show ED₅₀ values for the compounds of the aforesaid examples.

[3] = tested on: Male mice; experiment: Anorexia test from CNS screen (consumption of sweetened condensed milk spots); type: in vivo; settings: Mus musculus; fasted male mice, oral doses, 0.5 h after administration, 10 min access to milk; read-out: ED₅₀ for Anorexia
Method: Male mice weighing 18-25 grams and fasted over-night for 17-21 h were used in these studies. At 0.5 h after administration of graded oral doses of compound prepared in aqueous Methocel® (methylcellulose, viscosity 100 mPa·s (CPS), grade A15C, Dow Chemical Co.) and dosed at 0.1 ml per 10 grams of body weight, each mouse was transferred to an individual, clear, Lucite® compartment (13.3 cm x 12.7 cm x 12.7 cm) with a wire mesh floor having 0.64 cm x 0.64 cm openings. Five compartments were linearly arranged in each cage unit. Inside each compartment was a section of a black Lucite® bar (13 cm x 1.2 cm x 1.2 cm), in the top of which were ten spot depressions (0.8 cm diameter), each containing 0.05 ml of 50% sweetened condensed milk. Ten (10) minutes later the mice were removed from to the compartments and the number of milk spots consumed by each mouse was counted. Fractions of spots consumed were also estimated and counted. Data were expressed as % decrease from control. ED₅₀ values were estimated using linear regression analysis.

[4] = tested on: Male CF1 mice; experiment: Mouse antiphenylquinone writhing (PQW) test; type: in vivo; settings: Table 3; for ED50: Mus musculus, 0.5 h, phenylquinone 1.25 mg/kg i.p., observation beginning 30 min after injection of test compound; for Mouse PQW remark: remark beside S.C and P.O values
Method: The anti-pheylquinone writhing (PQW) test modified from the methods of Siegmund et al. (Proc. Soc. Exp. Biol. Med. 95: 729-731, 1957) and Blumberg et al. (Proc. Exp. Biol. Med. 118: 763-767, 1965) was used to assess analgesia in mice. Male CF1 mice (Charles River Breeding Laboratories, Wilmington, MA), fasted for 16-22 h and weighing 18-23 g, were injected with randomized and coded doses of test compounds, then challenged with 1.25 mg/kg i.p. phenyl-p-benzoquinone (phenylquinone) 5 min prior to the specified observation time. The phenylquinone solution (0.1 mg/ml in 5% aqueous ethanol) was prepared daily and stored in foil-wrapped amber bottles to limit degradation. Mice were observed 10 min for the presence or absence of the characteristic abdominal constriction and stretching response beginning 30 min after injection of the test compound. Analgetic activity was calculated as the percentage of mice failing to respond to the phenylquinone challenge dose. […] Median effective doses (ED50's) and 95% confidence limits were determined numerically by the methods of Thompson (Bacteriological Rev. 11: 115-145, 1947), and Litchfield and Wilcoxon (J. Pharmacol. Exp. Ther. 96: 99.113, 1949).
The data shown in Table show the PQW ED₅₀ values for the compounds of the aforesaid examples.
Table 4 illustrates that the 3° carbinols within the scope of U.S. 4,485,109 have utility as analgesic agents.

[5] = read-out: Oral ED₅₀ (mg/kg) for Prevention of Ptosis
[6] = po, p.o., read-out: Mouse PQW ED₅₀ (Mg/Kg) P.O
[7] = sc, s.c., read-out: Mouse PQW ED₅₀ (Mg/Kg) S.C

**Q.** Which “analgesic activity compared with the parent ketones” value [1] does the source give for `CCC(O)C1(c2ccccc2)CCN(C)CC1` (stereo not shown) [4-phenyl-1-methyl-4-(1-hydroxypropyl)piperidine, reference compound] here?
**A.** much less active as analgesics than the parent ketones

**Q.** Which results are given for `CC(O)C1(c2cccc(Cl)c2)CCN(C)CC1` (stereo not drawn) [Example 1, 4-(3'-Chlorophenyl)-α,1-dimethyl-4-piperidinemethanol]?
**A.** ED50 ([2]; read-out: Oral ED₅₀ (mg/kg) for Prevention of Exploratory Loss): 0.92 mg/kg; ED50 [2, 5]: 0.74 mg/kg; ED50 [3]: 20 mg/kg; ED50 [4, 6]: 19 mg/kg; ED50 [4, 7]: 8.1 mg/kg

**Q.** With `CC(O)C1(c2ccccc2)CCN(C)CC1` (stereo not shown) [Example 3, 4-phenyl-1-methyl-4-(1-hydroxyethyl)piperidine] as the molecule, how does the “analgesic activity compared with the parent ketones” value [1] read?
**A.** much less active as analgesics than the parent ketones

**Q.** What about the ED50 [4, 6] of the same molecule?
**A.** 38 mg/kg

**Q.** What about the ED50 [4, 7] of the same molecule?
**A.** 19 mg/kg

**Q.** Which ED50 [2, 5] does the source give for `Cc1ccccc1C1(C(C)O)CCN(C)CC1` (stereo not shown) [Example 12] here?
**A.** 1.03 mg/kg

**Q.** What about the ED50 [4, 6] of the same molecule?
**A.** > 81 mg/kg

**Q.** What about the ED50 [4, 7] of the same molecule?
**A.** > 81 mg/kg

**Q.** What about the “Mouse PQW remark” value [4] of the same molecule?
**A.** Inactive

**Q.** With `CC(O)C1(c2ccc(C(F)(F)F)cc2)CCN(C)CC1` (stereo not drawn) [Example 16, 4(4'-Trifluoromethylphenyl)-α-1-dimethylpiperidinemethanol] as the molecule, how does the ED50 [2, 5] read?
**A.** 28 mg/kg

**Q.** And the ED50 [3]?
**A.** 22 mg/kg

**Q.** What about the ED50 [4, 6] of the same molecule?
**A.** > 81 mg/kg

**Q.** What about the ED50 [4, 7] of the same molecule?
**A.** > 81 mg/kg

**Q.** And the “Mouse PQW remark” value [4]?
**A.** Inactive

**Q.** Which ED50 [2, 5] does the source give for `COc1ccc(C2(C(C)O)CCN(C)CC2)cc1` (stereo not shown) [Example 17] here?
**A.** 1.3 mg/kg

**Q.** And the ED50 [4, 6]?
**A.** > 81 mg/kg

**Q.** And the ED50 [4, 7]?
**A.** > 81 mg/kg

**Q.** What about the “Mouse PQW remark” value [4] of the same molecule?
**A.** Inactive
